Consider one substance from paper PMC9532399, “The lysosomal transporter TAPL has a dual role as peptide translocator and phosphatidylserine floppase” (Nature Communications, 2022).

The assay relates to TAPL Q298A mutant. Kind of assay: Peptide transport assay, Q298A. The following applies: 9-mer 10 mM (sic), 3 mM ATP. Type of assay: biochemical, mouse. On the procedure: Proteoliposomes for peptide transport assays were prepared according to the protocol of Zhao et al., with some modifications. Briefly, E. coli polar lipid extract dissolved in chloroform was dried under a gentle stream of nitrogen. The thin film of lipids was placed under a desiccator overnight to completely remove residual chloroform and then hydrated in 1X PBS buffer pH 7.4 (137 mM NaCl, 2.7 mM KCl, 8 mM Na2HPO4, and 2 mM KH2PO4) with 10 mM MgCl2 and 5% (v/v) glycerol. After water bath sonication at 22 °C for 5 min (Powersonic 610, KLEENTEK), the lipid solution was extruded using a Mini-Extruder equipped with a polycarbonate membrane filter (200 nm pore) (Avanti Polar Lipids, Inc.) to obtain unilamellar vesicles, which were destabilized with 0.36% (w/v) DM. The DM-purified protein and lipid suspension were mixed in a 1:50 (w/w) ratio. After incubation at 4 °C for 2 h, the mixture was treated with Bio-Beads SM-2 resin (60 and 120 mg, see above) at 4 °C for a total of 18 h to remove detergent. The proteoliposomes were collected by centrifugation at 200,000×g for 1.5 h at 4 °C and resuspended in the buffer described above.
The peptide transport activity of ΔTMD0 was measured as described previously. Briefly, 50 μL of ΔTMD0-loaded proteoliposomes (~0.6 μg protein) were added into 200 μL reaction buffer containing 1X PBS pH 7.4, 3 mM ATP, and 10 mM MgCl2 in the presence or absence of 10 μM 5-IAF-labeled peptides. To investigate transport activity, the mixture was incubated at 37 °C for 10 min. The reaction was terminated by incubating the mixture for 20 min on ice. Proteoliposomes were collected by centrifugation at 200,000×g for 30 min and then washed twice with 1X PBS. The proteoliposomes were completely disrupted by adding 10% (w/v) SDS solution (final concentration, 2%). The transported peptide was measured using a microplate reader (Gemini XPS) with excitation at 485 nm and emission at 520 nm.

Consider “RRYQNSTC^5-IAFL [9-mer, 5-IAF-labeled peptide of 9 residues (RRYQNSTC^5-IAFL)]”, for which the Transport activity reads like this: (replicate I) 88.0035%; (replicate II) 84.2917%; (replicate III) 85.5798%; (wild-type = 100%, mean n=3) 85.9583%.
